Results reported in ChEMBL document CHEMBL3217648, “Glycosylated porphyrin derivatives and their photodynamic activity in cancer cells” (Medchemcomm, 2011).
The source made the active and inactive calls. No cut-off for these calls is given here.

Legend:
HeLa [1] = test: Phototoxicity against human HeLa cells at 1 uM after 24 hrs followed by halogen light irradiation by MTS assay; type: functional, cell-based
HCT-116 = test: Phototoxicity against human HCT116 cells at 1 uM after 24 hrs followed by halogen light irradiation by MTS assay; type: functional, cell-based
HeLa [2] = test: Cellular uptake in human HeLa cells at 1 uM after 24 hrs by fluorescence microscopy; type: ADME, cell-based
[3] = Dark toxicity against human HeLa cells assessed as cell viability at 1 uM after 24 hrs by MTS assay; type: cell-based; conditions: read-out: Survival
[4] = Dark toxicity against human HCT116 cells assessed as cell viability at 1 uM after 24 hrs by MTS assay; type: cell-based, HCT-116; conditions: read-out: Survival

Compound | Activity (HeLa [1]) | Activity (HCT-116) | Drug uptake (HeLa [2]) | viability at 24 h, 1 µM [3] | viability at 24 h, 1 µM [4]
COc1cccc(OC)c1-c1c2nc(c([C@H]3O[C@@H]4OC(C)(C)O[C@@H]4[C@H]4OC(C)(C)O[C@H]43)c3ccc([nH]3)c(-c3c(OC)cccc3OC)c3nc(c([C@H]4O[C@@H]5OC(C)(C)O[C@@H]5[C@H]5OC(C)(C)O[C@H]54)c4ccc1[nH]4)C=C3)C=C2 | inactive | inactive |  |  | 
CSc1ccc(-c2c3nc(c([C@H]4O[C@@H]5OC(C)(C)O[C@@H]5[C@H]5OC(C)(C)O[C@H]54)c4ccc([nH]4)c(-c4ccc(SC)cc4)c4nc(c([C@H]5O[C@@H]6OC(C)(C)O[C@@H]6[C@H]6OC(C)(C)O[C@H]65)c5ccc2[nH]5)C=C4)C=C3)cc1 | Active | Active | Not Active | > 90% | > 90%
CC1(C)O[C@H]2[C@@H](O1)[C@@H](C=O)O[C@@H]1OC(C)(C)O[C@@H]12 | inactive | inactive |  |  | 
COc1ccc(-c2c3nc(c([C@H]4O[C@@H]5OC(C)(C)O[C@@H]5[C@H]5OC(C)(C)O[C@H]54)c4ccc([nH]4)c(-c4ccc(OC)cc4)c4nc(c([C@H]5O[C@@H]6OC(C)(C)O[C@@H]6[C@H]6OC(C)(C)O[C@H]65)c5ccc2[nH]5)C=C4)C=C3)cc1 | Active | Active | Not Active | > 90% | > 90%
CC1(C)O[C@H]2[C@@H](O1)[C@@H](c1c3nc(c(-c4c(F)c(F)c(F)c(F)c4F)c4ccc([nH]4)c([C@H]4O[C@@H]5OC(C)(C)O[C@@H]5[C@H]5OC(C)(C)O[C@H]54)c4nc(c(-c5c(F)c(F)c(F)c(F)c5F)c5ccc1[nH]5)C=C4)C=C3)O[C@@H]1OC(C)(C)O[C@@H]12 | inactive | inactive |  |  | 
CC1(C)O[C@H]2[C@@H](O1)[C@@H](c1c3nc(c(-c4ccc(Cl)cc4)c4ccc([nH]4)c([C@H]4O[C@@H]5OC(C)(C)O[C@@H]5[C@H]5OC(C)(C)O[C@H]54)c4nc(c(-c5ccc(Cl)cc5)c5ccc1[nH]5)C=C4)C=C3)O[C@@H]1OC(C)(C)O[C@@H]12 | inactive | inactive |  |  | 
CC1(C)O[C@H]2[C@@H](O1)[C@@H](c1c3nc(c(-c4ccc([N+](=O)[O-])cc4)c4ccc([nH]4)c([C@H]4O[C@@H]5OC(C)(C)O[C@@H]5[C@H]5OC(C)(C)O[C@H]54)c4nc(c(-c5ccc([N+](=O)[O-])cc5)c5ccc1[nH]5)C=C4)C=C3)O[C@@H]1OC(C)(C)O[C@@H]12 | inactive | inactive |  |  | 
CC1(C)O[C@H]2[C@@H](O1)[C@@H](c1c3nc(c(-c4ccsc4)c4ccc([nH]4)c([C@H]4O[C@@H]5OC(C)(C)O[C@@H]5[C@H]5OC(C)(C)O[C@H]54)c4nc(c(-c5ccsc5)c5ccc1[nH]5)C=C4)C=C3)O[C@@H]1OC(C)(C)O[C@@H]12 | Active | Active | Active | > 90% | > 90%
CC1(C)O[C@H]2[C@@H](O1)[C@@H](c1c3nc(c(-c4ccccc4)c4ccc([nH]4)c([C@H]4O[C@@H]5OC(C)(C)O[C@@H]5[C@H]5OC(C)(C)O[C@H]54)c4nc(c(-c5ccccc5)c5ccc1[nH]5)C=C4)C=C3)O[C@@H]1OC(C)(C)O[C@@H]12 | inactive | inactive |  |  | 
CC1(C)O[C@H]2[C@@H](O1)[C@@H](c1c3nc(c(-c4ccc(OC(F)(F)F)cc4)c4ccc([nH]4)c([C@H]4O[C@@H]5OC(C)(C)O[C@@H]5[C@H]5OC(C)(C)O[C@H]54)c4nc(c(-c5ccc(OC(F)(F)F)cc5)c5ccc1[nH]5)C=C4)C=C3)O[C@@H]1OC(C)(C)O[C@@H]12 | inactive | inactive |  |  | 
